Results from publication PMC3681492, “Identification and Characterization of a Novel Chemotype MEK Inhibitor Able to Alter the Phosphorylation State of MEK1/2” (Oncotarget, 2012).
One block for each molecule: values may come before it.

Columns and labels:
Raf kinase = Raf kinase activity, phosphorylation of MBP; conditions: for phosphorylation of the Raf kinase substrate MBP: at concentrations below 10 μM
HT-29 cells [1] = assay: Growth inhibition of HT-29 cells by [3H]-TdR incorporation; type: cell-based; conditions: Homo sapiens, [3H]-TdR incorporation during last 6 h of 3-day culture, read-out: growth inhibitory activity (IC50)
Description: HT-29 cells were cultured in McCoy's 5a medium supplemented with 10% (v/v) fetal bovine serum and antibiotics. ACHN and HEK293T cells were maintained in Dulbecco's modified Eagle's medium supplemented with 10% (v/v) fetal bovine serum and antibiotics in a humidified CO2 incubator. The growth inhibitory activities of compounds toward HT-29 cells were determined by [^3H]-TdR incorporation for the last 6 h of a 3-day culture period. […] The lysed cells were then homogenized by 20 strokes of a loose-fitting Dounce homogenizer and centrifuged for 6 min at 4,300×g to separate the nuclei from the cytoplasmic fraction. The cytoplasmic fraction was ultracentrifuged for 1 h at 150,000×g and the supernatant was dialyzed against a buffer containing 20 mM HEPES (pH 7.9), 20% (v/v) glycerol, 0.1 M KCl, 0.2 mM EDTA, 0.5 mM PMSF and 0.5 mM DTT for 5 h at 4°C. After centrifugation for 20 min at 15,000×g, the supernatant was collected as the cytosolic fraction.

MEK1/2 = assay: Competitive pull-down with JTP-74100-conjugated resin from HT-29 cytosolic fraction; type: binding, human; conditions: 46-kDa band on SDS-PAGE
c-Raf = c-Raf (Homo sapiens, UniProt P04049); assay: Raf/MBP kinase assay, c-Raf
c-Raf, sequence (P04049 306-648): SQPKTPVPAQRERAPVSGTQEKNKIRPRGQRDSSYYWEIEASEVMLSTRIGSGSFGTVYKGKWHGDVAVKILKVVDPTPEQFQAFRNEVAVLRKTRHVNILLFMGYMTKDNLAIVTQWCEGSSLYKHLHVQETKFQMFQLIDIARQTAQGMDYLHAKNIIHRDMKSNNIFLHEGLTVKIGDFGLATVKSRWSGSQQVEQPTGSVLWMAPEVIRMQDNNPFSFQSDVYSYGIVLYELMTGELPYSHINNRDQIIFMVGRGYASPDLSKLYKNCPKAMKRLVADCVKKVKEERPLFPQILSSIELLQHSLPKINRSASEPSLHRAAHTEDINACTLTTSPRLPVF

[2] = parameters: method as in PMID 22805291; conditions: orally administered, cancer patients, phase I study; cited from earlier work
p-MEK1 = target: T1, p-MEK1 (Homo sapiens, UniProt Q02750); assay: Kinetic (double-reciprocal) analysis of MEK inhibition in the MEK-ERK reaction; type: biochemical; conditions: p-MEK-ATP complex, double-reciprocal plots vs ATP
T1 construct: purchased Upstate Technology (Waltham, MA)

ACHN cells = assay: Western blot of MEK and ERK phosphorylation in ACHN cells; type: cell-based, human; conditions: ACHN cells (K-Ras mutated, B-Raf unmutated), 24 h
Description: (§1) Cultured cells were treated with various compounds and then lysed in lysis buffer (50 mM Tris-HCl pH 7.4, 150 mM NaCl, 1 mM EGTA, 1 mM Na3Vo4, 1% Triton X-100 and EDTA-free protease inhibitor cocktail). The cell lysates were collected and centrifuged, and the supernatants were subjected to SDS-PAGE. After the electrophoresis, the proteins were transferred onto PVDF membranes at 1 mA/cm^2 for 1 h. The membranes were incubated in blocking solution (Blockace; Nacalai Tesque, Kyoto, Japan) and washed with PBS containing 0.1% Tween 20 (PBS/T). The membranes were then incubated with the primary antibody, washed three times with PBS/T and incubated with the secondary antibody. After washing with PBS/T, the membranes were incubated with ECL-Plus or ECL-Advanced western blot reagents (GE Healthcare, Little Chalfont, Buckinghamshire, UK) for 5 min, exposed to ECL Hyperfilm and visualized using a LAS3000 imager (Fujifilm).

B-Raf = B-Raf (Homo sapiens, UniProt P15056, V600E); assay: biochemical
B-Raf, sequence (P15056 whole entry V600E): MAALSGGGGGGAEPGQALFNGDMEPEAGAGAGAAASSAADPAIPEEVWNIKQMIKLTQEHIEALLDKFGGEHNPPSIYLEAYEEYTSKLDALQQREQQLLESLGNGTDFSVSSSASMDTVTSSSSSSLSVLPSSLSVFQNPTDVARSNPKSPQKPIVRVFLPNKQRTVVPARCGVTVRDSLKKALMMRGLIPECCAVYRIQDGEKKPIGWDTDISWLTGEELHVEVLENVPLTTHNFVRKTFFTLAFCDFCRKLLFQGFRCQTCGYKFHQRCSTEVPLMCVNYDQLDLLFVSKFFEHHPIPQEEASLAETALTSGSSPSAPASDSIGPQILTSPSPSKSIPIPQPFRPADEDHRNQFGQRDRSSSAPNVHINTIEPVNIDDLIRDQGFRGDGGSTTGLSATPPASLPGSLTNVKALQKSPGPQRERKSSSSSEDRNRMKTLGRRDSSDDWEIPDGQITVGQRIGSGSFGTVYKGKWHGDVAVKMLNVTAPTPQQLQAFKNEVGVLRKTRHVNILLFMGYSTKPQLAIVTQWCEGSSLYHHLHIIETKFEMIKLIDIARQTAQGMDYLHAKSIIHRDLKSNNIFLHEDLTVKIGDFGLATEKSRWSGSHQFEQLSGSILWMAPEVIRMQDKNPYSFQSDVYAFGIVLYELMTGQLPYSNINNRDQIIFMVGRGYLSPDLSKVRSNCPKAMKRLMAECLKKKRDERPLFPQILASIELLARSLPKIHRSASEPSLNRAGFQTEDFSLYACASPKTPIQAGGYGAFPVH

HT-29 cells [3] = assay: Western blot of MEK and ERK phosphorylation in HT-29 cells; type: cell-based, human; conditions: for MEK phosphorylation status after pulse treatment: 2 h treatment then washout
Inactive u-MEK (K97R) = Inactive u-MEK (K97R) (Homo sapiens, UniProt Q02750, K97R); assay: Temperature-dependent CD analysis of u-MEK; conditions: 10 μM compound, 3 μM u-MEK; u-MEK alone 50.2 °C
[4] = test system: HT-29 cells and ACHN cells; assay: Western blot of downstream signaling molecules (c-Myc, cyclin D1, p15INK4b, p27KIP1); type: cell-based, human; conditions: 24 h treatment
Description: as §1
Supplemental Table: Identif ied Peptide Sequences of 46 kDa Proteins.
ACCESSION Start - End Obsrved Mr(expt) Mr(calc) Sequence
Supp lemental Figure: Alterations of downstream signaling molecules in cancer cells by
(A, B) HT-29 cells (A) and ACHN cells (B) were treated with the
indicated concentrations of each compound for 24 h,same as the experiment of F ig u re 3A. And
the cell lysates were analyzed by western blotting using antibodies specific to c-M yc (Upstate […]

various cancer cells = assay: Western blot of MEK and ERK phosphorylation in various cancer cell lines; type: cell-based; conditions: 2 h
Description: as §1

[5] = cited from earlier work

Compound: CNC(=O)c1cc(Oc2ccc(NC(=O)Nc3ccc(Cl)c(C(F)(F)F)c3)cc2)ccn1 [BAY 43-9006]
concentration that inhibited Raf kinase activity (Raf kinase; same conditions as Raf/MBP assay, data not shown): 0.1 µM

Compound: COc1ccccc1Nc1cc(=O)n(C)c2c1c(=O)n(-c1ccccc1)c(=O)n2-c1ccccc1 [JTP-65634]
IC50 (HT-29 cells [1]): > 10000 nM
concentration needed to clearly compete with JTP-74100-immobilized resin for binding to MEK (MEK1/2): > 100 µM

Compound: CC(=O)Nc1cccc(-n2c(=O)n(C3CC3)c(=O)c3c(Nc4ccc(I)cc4F)n(C)c(=O)c(C)c32)c1 [JTP-74057]
IC50 (c-Raf): > 10000 nM
t1/2 [2]: about 4 days
Ki' (MEK/ATP vs. compound) (p-MEK1): 290 ± 80 nM
accumulation of p-MEK (ACHN cells): did not significantly, or slightly if any, induce accumulation of p-MEK
IC50 (B-Raf): > 10000 nM
IC50 (HT-29 cells [1]): 0.57 nM
time at which p-MEK level was decreased (HT-29 cells [3]; 10 nM): ≤ 15 min
time at which p-MEK was almost ablated (HT-29 cells [3]; 10 nM): 30 min
MEK phosphorylation status after pulse treatment (HT-29 cells [3]): disappearance of p-MEK was sustained for a considerable period
ERK phosphorylation (HT-29 cells [3]; 24 h): inhibited ERK phosphorylation
p-MEK level (HT-29 cells [3]; 24 h): decreased the p-MEK level
Tm of u-MEK with compound (CD) (Inactive u-MEK (K97R)): 57.5 °C
concentration at which accumulation of p15INK4b and p27KIP1 and decrease of c-Myc and Cyclin D1 were observed [4]: 1 nM
phosphorylation of the Raf kinase substrate MBP (Raf kinase): not inhibited
p-MEK levels in HCT-15, LS-174T, T84 and LoVo cells (various cancer cells; 100 nM): did not decrease or decrease to a lesser extent
p-MEK levels in HT-29, COLO-205, HCT-116, SW480 and SW620 cells (various cancer cells; 100 nM (HT-29 10 nM)): decreased
ERK phosphorylation in various cancer cell lines (various cancer cells; 100 nM (HT-29 10 nM), 10 cell lines): efficiently inhibited in almost all cell lines, except for COLO-320DM
ERK phosphorylation in grafted cancer tissues ([5]; animals, after oral administration): inhibited ERK phosphorylation
half-life in the blood ([5]; in vivo, po): long half-life

Compound: O=C(NOC[C@H](O)CO)c1ccc(F)c(F)c1Nc1ccc(I)cc1F [PD0325901, reference compound]
accumulation of p-MEK (ACHN cells): induced significant accumulation of p-MEK
IC50 (HT-29 cells [1]): 3.4 nM
time for p-ERK level to return to nearly normal level after removal (HT-29 cells [3]; 100 nM for 2 h then washout): ≤ 1 h
MEK phosphorylation status after pulse treatment (HT-29 cells [3]): did not affect the MEK phosphorylation status
ERK phosphorylation (HT-29 cells [3]; 24 h): inhibited ERK phosphorylation
concentration at which accumulation of p15INK4b and p27KIP1 and decrease of c-Myc and Cyclin D1 were observed [4]: 10 nM
phosphorylation of the Raf kinase substrate MBP (Raf kinase): not inhibited

Results, then the molecule that gave them:

IC50 (HT-29 cells [1]): 0.39 nM
concentration needed to clearly compete with JTP-74100-immobilized resin for binding to MEK (MEK1/2): above 10 μM
Compound: Cn1c(=O)cc(Nc2ccc(I)cc2F)c2c(=O)n(C3CC3)c(=O)n(-c3cccc(NS(C)(=O)=O)c3)c21 [JTP-70945]

concentration needed to clearly compete with JTP-74100-immobilized resin for binding to MEK (MEK1/2): 100 µM
Compound: N#CC(=C(/N)Sc1ccccc1N)/C(C#N)=C(\N)Sc1ccccc1N [U0126, reference compound]

IC50 (HT-29 cells [1]): 840 nM
Compound: CCCCC(=O)NCCC(=O)Nc1cccc(-n2c(=O)n(C3CC3)c(=O)c3c(Nc4ccccc4F)n(C)c(=O)c(C)c32)c1 [pentanoyl JTP-74099]

IC50 (HT-29 cells [1]): 2.1 nM
Compound: CCCCC(=O)NCCC(=O)Nc1cccc(-n2c(=O)n(C3CC3)c(=O)c3c(Nc4ccc(I)cc4F)n(C)c(=O)c(C)c32)c1 [pentanoyl JTP-74100]
